Experimental data taken from paper PMC12645437, “Orthogonal IMiD-Degron Pairs Induce Selective Protein Degradation in Cells” (ACS Chemical Biology, 2025).

Columns and labels:
[1] = test system: library of 8380 IKZF3 degrons fused to EGFP in Jurkat cells; experiment: Pooled mutant ZF degron library screen (FACS EGFPlow vs EGFP+, NGS), 18 h; format: cell-based, human;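 for logFC: Log2 fold change of EGFPlow over EGFP+ representation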
[2] = test system: Jurkat cells; experiment: TMTpro quantitative proteomics, 16 h; details: for Scaled value (to 150), replicate 01 / Scaled value (to 150), replicate 02 / Scaled value (to 150), replicate 03: Jurkat whole cell extracts, TMTpro SPS-MS3
Method: Quantitative proteomics screens were carried out in untransduced Jurkat cells, embryonic stem cells (ESCs), and the multiple myeloma cell line, MM.1S. We used Jurkat cells, as our work up to this point had employed this cell line, and we selected ESCs and MM.1S cells as they express known CRBN neosubstrates, including IKZF1, IKZF3, RAB28, RNF166, SALL4, ZFP91, and ZNF827.
Proteomics - cell lysis and protein digestion
The viability of Jurkat cells was tested after 16-h treatment with corresponding chemicals
viable cells in each condition. Next, ~10^7 cells per condition were collected by centrifugation (1000 rpm), washed twice with ice-cold PBS, and lysed in RIPA buffer [50 mM HEPES pH 7.4, 150 mM NaCl, 1% sodium deoxycholate, 1% NP-40, 0.1% SDS, 10 mM sodium pyrophosphate, 10 mM β-glycerophosphate, 2.5 mM MgCl2, 200 µM TCEP, phosphatase and protease inhibitor cocktail (in-house)], to produce whole cell extracts. Whole-cell extracts were sonicated, and protein concentrations were determined using the Bradford assay. Protein extracts (100 µg) were subjected to disulfide bond reduction with 5 mM TCEP (10 min) and alkylation with 25 mM chloroacetamide (20 min). Methanol–chloroform precipitation was performed prior to protease digestion. In brief, four parts of neat methanol were added to each sample and vortexed, one part chloroform was added to the sample and vortexed, and finally, three parts water was added to the sample and vortexed. The sample was centrifuged at 8000 rpm for 5 min at room temperature and subsequently washed twice with 100% methanol. Samples were resuspended in 100 mM EPPS pH8.5 containing
0.1% RapiGest and digested at 37 °C for 6 h with trypsin at a 100:1 protein-to-protease ratio.
Samples were then subjected to TMTpro
labeling. The preparation of MM1S cell extracts was conducted using the same procedure as for
Jurkat cells. ESC cells were plated onto 6 cm dishes 24 hours prior to the chemical treatment.
Following the chemical treatment, the cells on the dish were washed with DPBS four times, after
which RIPA buffer was added directly to the dish, and the lysate was collected using a scraper.
The whole cell lysates were then processed similarly to the Jurkat cell lysates.
Proteomics - Tandem mass tag labeling
Proline-based reporter isobaric Tandem Mass Tag (TMTpro) labeling of dried peptide samples
resuspended in 100 mM EPPS pH 8.5, was carried out as follows. TMTpro reagent was added to
samples (100 µg peptide), along with acetonitrile, to achieve a final acetonitrile concentration of
approximately 30% (v/v). Following incubation at room temperature for 1 h, the labeling efficiency
of a small aliquot was tested. The reaction was then quenched with hydroxylamine to a final
concentration of 0.5% (v/v) for 15 min. The TMTpro-labeled samples were pooled together at a
1:1 ratio. The sample was vacuum centrifuged to near dryness and subjected to C18 solid-phase
The dried TMTpro-labeled sample was resuspended in 100 μL of 10 mM NH4HCO3 pH 8.0 and
fractionated using basic pH reverse phase HPLC 40. Briefly, samples were offline fractionated over
a 90 min run, into 96 fractions by high pH reverse-phase HPLC (Agilent LC1260) through an aeris
peptide xb-c18 column (Phenomenex; 250 mm × 3.6 mm) for total proteome with mobile phase A
containing 5% acetonitrile and 10 mM NH4HCO3, and mobile phase B containing 90% acetonitrile

[3] = biological target: T1, Q147A mutant degron (ANQS) fused to EGFP (Homo sapiens, UniProt Q96SW2+Q9UKT9, Q147A); experiment: Ratiometric EGFP:mCherry flow cytometry degradation assay, 18 h; format: cell-based; details: Jurkat, read-out: DMax Q147A/%
T1 construct: pLVX-Sprout-IKZF3 130-189aa Q147A (ANQS); expressed in transfected cells

[4] = protein AADAT isoform 2 (Q8N5Z0-2)

T1 sequence (Q9UKT9 130-189 Q147A): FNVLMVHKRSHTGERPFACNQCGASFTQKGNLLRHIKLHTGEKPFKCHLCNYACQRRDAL
T1 sequence (Q96SW2 whole entry, the tested form may be a part): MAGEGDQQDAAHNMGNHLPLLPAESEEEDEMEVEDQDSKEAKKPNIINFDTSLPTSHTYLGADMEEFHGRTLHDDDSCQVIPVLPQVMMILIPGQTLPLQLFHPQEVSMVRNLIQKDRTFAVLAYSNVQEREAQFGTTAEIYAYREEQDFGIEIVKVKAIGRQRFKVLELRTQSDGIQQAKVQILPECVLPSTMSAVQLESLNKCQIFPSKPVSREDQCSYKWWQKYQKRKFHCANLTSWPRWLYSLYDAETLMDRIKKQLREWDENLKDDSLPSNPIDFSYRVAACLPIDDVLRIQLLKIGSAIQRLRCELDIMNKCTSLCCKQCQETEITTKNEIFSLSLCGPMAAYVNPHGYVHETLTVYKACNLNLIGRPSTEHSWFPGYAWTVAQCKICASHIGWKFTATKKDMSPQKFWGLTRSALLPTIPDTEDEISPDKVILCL
T1 sequence (Q16531 whole entry partner, the tested form may be a part): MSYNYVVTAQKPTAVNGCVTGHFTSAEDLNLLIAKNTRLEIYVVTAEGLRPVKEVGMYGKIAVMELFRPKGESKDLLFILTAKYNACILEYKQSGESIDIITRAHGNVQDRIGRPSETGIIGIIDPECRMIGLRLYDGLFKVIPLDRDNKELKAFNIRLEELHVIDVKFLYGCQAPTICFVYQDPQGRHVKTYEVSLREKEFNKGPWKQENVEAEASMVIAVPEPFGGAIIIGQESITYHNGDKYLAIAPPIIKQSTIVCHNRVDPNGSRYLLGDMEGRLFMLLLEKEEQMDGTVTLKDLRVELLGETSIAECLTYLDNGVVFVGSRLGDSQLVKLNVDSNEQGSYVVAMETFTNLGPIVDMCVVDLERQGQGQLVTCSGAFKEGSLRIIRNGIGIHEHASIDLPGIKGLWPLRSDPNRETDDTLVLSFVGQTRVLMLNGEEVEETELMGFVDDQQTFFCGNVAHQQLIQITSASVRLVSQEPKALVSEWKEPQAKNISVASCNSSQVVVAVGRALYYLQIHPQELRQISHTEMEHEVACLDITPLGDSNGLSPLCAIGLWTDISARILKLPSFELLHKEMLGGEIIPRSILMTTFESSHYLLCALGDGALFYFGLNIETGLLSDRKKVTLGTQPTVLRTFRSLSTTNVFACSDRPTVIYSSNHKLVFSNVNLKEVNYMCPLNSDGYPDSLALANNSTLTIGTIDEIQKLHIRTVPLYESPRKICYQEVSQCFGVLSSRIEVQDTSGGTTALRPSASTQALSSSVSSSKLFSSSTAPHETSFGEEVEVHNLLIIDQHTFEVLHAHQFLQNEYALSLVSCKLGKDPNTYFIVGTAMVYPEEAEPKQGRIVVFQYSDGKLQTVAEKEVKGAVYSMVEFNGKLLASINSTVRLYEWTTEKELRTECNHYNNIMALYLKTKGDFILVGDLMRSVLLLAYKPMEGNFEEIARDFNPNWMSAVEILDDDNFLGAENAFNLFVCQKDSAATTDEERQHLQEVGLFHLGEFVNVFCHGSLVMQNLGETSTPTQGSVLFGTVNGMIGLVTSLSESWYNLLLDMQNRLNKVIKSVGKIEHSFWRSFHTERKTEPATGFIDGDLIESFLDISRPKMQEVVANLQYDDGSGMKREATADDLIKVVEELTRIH

Work on `O=C1CCC(N2C(=O)c3ccccc3C2=O)C(=O)N1` (centres unmarked) [Compound 1, thalidomide, reference compound] yielded a logFC ([1]; degron residues 146/147/149/150/152/153/154/155/167: FADVGAHFL) of -2.25, a logFC ([1]; degron residues 146/147/149/150/152/153/154/155/167: FADVGAIFL) of -1.83 and a logFC ([1]; degron residues 146/147/149/150/152/153/154/155/167: FADVGAKFL) of -1.45. It also gave a logFC ([1]; degron residues 146/147/149/150/152/153/154/155/167: FADVGALFL) of -2.47, a logFC ([1]; degron residues 146/147/149/150/152/153/154/155/167: FADVGAMFL) of -2.29 and a logFC ([1]; degron residues 146/147/149/150/152/153/154/155/167: FADVGANFL) of -2.15. It also gave a logFC ([1]; degron residues 146/147/149/150/152/153/154/155/167: FADVGAPFL) of -0.92, a logFC ([1]; degron residues 146/147/149/150/152/153/154/155/167: FADVGAQFL) of -1.67 and a logFC ([1]; degron residues 146/147/149/150/152/153/154/155/167: FADVGARFL) of -1.19. It also gave a logFC ([1]; degron residues 146/147/149/150/152/153/154/155/167: FADVGASFL) of -1.27, a logFC ([1]; degron residues 146/147/149/150/152/153/154/155/167: FADVGATFL) of -1.78 and a logFC ([1]; degron residues 146/147/149/150/152/153/154/155/167: FADVGAVFL) of -2.08. For the same compound, the logFC ([1]; degron residues 146/147/149/150/152/153/154/155/167: FADVGAWFL) was -2.99, the logFC ([1]; degron residues 146/147/149/150/152/153/154/155/167: FADVGAYFL) was -2.07 and the Log2FC ([1]; degron residues 146/147/149/150/152/153/154/155/167: FQEIGAPFL) was 3.7224. For the same compound, the Log2FC ([1]; degron residues 146/147/149/150/152/153/154/155/167: FQEIGARFL) was 3.7041, the Log2FC ([1]; degron residues 146/147/149/150/152/153/154/155/167: FQEIGASFL) was 3.7484 and the Log2FC ([1]; degron residues 146/147/149/150/152/153/154/155/167: FQEVGAQFL) was 3.7719. For the same compound, the Log2FC ([1]; degron residues 146/147/149/150/152/153/154/155/167: FQEVGARFL) was 3.7061, the Log2FC ([1]; degron residues 146/147/149/150/152/153/154/155/167: FQEVGATFL) was 3.7446 and the Log2FC ([1]; degron residues 146/147/149/150/152/153/154/155/167: FQEVGAVFL) was 3.7106. For the same compound, the Log2FC ([1]; degron residues 146/147/149/150/152/153/154/155/167: FQNIGAIFL) was 3.8114, the Log2FC ([1]; degron residues 146/147/149/150/152/153/154/155/167: FQNIGAPFL) was 3.7088 and the Log2FC ([1]; degron residues 146/147/149/150/152/153/154/155/167: FQNIGATFL, listed as Thal) was 3.867. The Log2FC ([1]; degron residues 146/147/149/150/152/153/154/155/167: FQNIGATFL, listed as Thalidomide) was 3.8667, the Log2FC ([1]; degron residues 146/147/149/150/152/153/154/155/167: FQPIGACFL) was 3.7711 and the Log2FC ([1]; degron residues 146/147/149/150/152/153/154/155/167: FQPIGADFL, listed as Thal) was 3.806. For the same compound, the Log2FC ([1]; degron residues 146/147/149/150/152/153/154/155/167: FQPIGADFL, listed as Thalidomide) was 3.8059, the Log2FC ([1]; degron residues 146/147/149/150/152/153/154/155/167: FQPIGAIFL) was 3.7924 and the Log2FC ([1]; degron residues 146/147/149/150/152/153/154/155/167: FQPIGASFL (QPIS), listed as Thal) was 3.79. The Log2FC ([1]; degron residues 146/147/149/150/152/153/154/155/167: FQPIGASFL (QPIS), listed as Thalidomide) was 3.7900, the Log2FC ([1]; degron residues 146/147/149/150/152/153/154/155/167: FQPVGAEFL) was 3.7612 and the Log2FC ([1]; degron residues 146/147/149/150/152/153/154/155/167: FQPVGAKFL, listed as Thal) was 3.962. It also gave a Log2FC ([1]; degron residues 146/147/149/150/152/153/154/155/167: FQPVGAKFL, listed as Thalidomide) of 3.9618, a Log2FC ([1]; degron residues 146/147/149/150/152/153/154/155/167: FQPVGAPFL, listed as Thal) of 3.872 and a Log2FC ([1]; degron residues 146/147/149/150/152/153/154/155/167: FQPVGAPFL, listed as Thalidomide) of 3.8717. It also gave a Log2FC ([1]; degron residues 146/147/149/150/152/153/154/155/167: FQPVGATFL) of 3.7941, a Log2FC ([1]; degron residues 146/147/149/150/152/153/154/155/167: FQPVGAVFL) of 3.7460 and a Log2FC ([1]; degron residues 146/147/149/150/152/153/154/155/167: LQPIGFVCL) of 3.7517. For the same compound, the “Scaled value (to 150), replicate 01” value ([2]; protein A2M (P01023)) was 8.46, the “Scaled value (to 150), replicate 02” value ([2]; protein A2M (P01023)) was 13.549 and the “Scaled value (to 150), replicate 03” value ([2]; protein A2M (P01023)) was 7.506. For the same compound, the “Scaled value (to 150), replicate 01” value ([2]; protein AAAS (Q9NRG9)) was 10.0487, the “Scaled value (to 150), replicate 02” value ([2]; protein AAAS (Q9NRG9)) was 9.769 and the “Scaled value (to 150), replicate 03” value ([2]; protein AAAS (Q9NRG9)) was 10.5105. The “Scaled value (to 150), replicate 01” value ([2]; protein AACS (Q86V21)) was 10.2228, the “Scaled value (to 150), replicate 02” value ([2]; protein AACS (Q86V21)) was 10.5542 and the “Scaled value (to 150), replicate 03” value ([2]; protein AACS (Q86V21)) was 9.811. For the same compound, the “Scaled value (to 150), replicate 01” value [2, 4] was 9.84, the “Scaled value (to 150), replicate 02” value [2, 4] was 10.2362 and the “Scaled value (to 150), replicate 03” value [2, 4] was 11.2082. The “proteins degraded (quantitative proteomics)” value ([2]; Jurkat, 10 μM, 16 h, 9644 quantified proteins) was “did not induce major protein degradation” and the Dmax [3] was 82%.
